Where no end group is shown, it is not given here.
Columns and labels:
[1] = test system: S. epidermidis ATCC 35984; test: Antibiofilm formation test, crystal violet protocol; format: cell-based, Staphylococcus epidermidis; conditions: 100 μM peptide, 24 h exposure, crystal violet OD570, at least 3 biological replicates
Description: S. epidermidis ATCC 35984 and Pseudomonas aeruginosa PAO1 were used to test the antimicrobial and antibiofilm activities of the peptides. Both bacteria were grown in blood agar plates and cultured overnight at 37 °C. Cell suspensions were prepared in a solution of 0.9% NaCl and adjusted to OD600 for a final concentration of ~ 10^8 cells/ml. For microscopy analysis, pre-inoculum was made in tryptic soy broth (TSB, Merck), and adjusted to OD600 for the same concentration of cells for all tests.
Serial dilution of peptides was performed in 96-well plates, going from 100 to 3.12 μM. Cell suspensions and TSB were added to the plates and a control was made with dimethyl sulfoxide (DMSO). Antibiofilm formation tests were performed with an adapted protocol, in which it is described that 24 h of incubation is sufficient to determinate antibiofilm activity. The OD600 was measured, then biofilm content accessed using the crystal violet protocol. Biofilm eradication test was performed supplementing 24 h pre-formed biofilm with a new culture broth, containing or not 25 μM of peptide. The plates were incubated for further 24 h followed by crystal violet protocol. The antimicrobial activity of pseudonajide was analyzed using a concentration of 25 μM after 1, 2, 4, and 24 h incubation. After measuring the optical density, the supernatant was collected and diluted. […] CFUs were counted after 24 h incubation. […]

MCF7 (breast cancer) = test: Cytotoxicity test, ImPACcell platform; format: cell-based, human; conditions: 25 μM, 24 h
Description: (§1) Cytotoxicity tests were performed on the ImPACcell robotic platform (BIOSIT, Université de Rennes 1). This featured high-throughput multiparameter image analysis, with both high-content screening and high-content analysis. The platform is equipped with an Olympus microscope and Compix SimplePCI software; a Zeiss Axio Imager M1 microscope with a Zeiss camera and AxioVision software; and imaging systems including an ArrayScan VTI Cellomics reader (Thermo Fisher), Hamilton STARlet and NIMBUS workstations, and a Scienion spotter. Cells used in the test were obtained from an already-existing collection available at BIOSIT (https://biosit.univ-rennes1.fr/impaccell-imagerie-pour-analyse-du-contenu-cellulaire). For the tests, seven different cell lines were used: human hepatocellular carcinoma (HuH7); colorectal adenocarcinoma (Caco-2); breast adenocarcinoma (MDA-MB231); colorectal carcinoma (HCT116); prostatic adenocarcinoma (PC3); lung carcinoma (NCL-H727); and breast cancer (MCF7). The residual cell percentages reported correspond to viable cells compared to the average viable cells in the DMSO control. Viability of 100% represents no cytotoxicity or inhibition of cell growth, while under 25–30% is considered cytotoxic and 0% represents acute cytotoxicity.

[2] = test system: HCT116 (colorectal carcinoma); test: Cytotoxicity test, ImPACcell platform; format: cell-based, human; conditions: 25 μM, 24 h
Description: as §1

[3] = test system: MDA-MB231 (breast adenocarcinoma); test: Cytotoxicity test, ImPACcell platform; format: cell-based, human; conditions: 25 μM, 24 h
Description: as §1

[4] = test system: NCL-H727 (lung carcinoma); test: Cytotoxicity test, ImPACcell platform; format: cell-based, human; conditions: 25 μM, 24 h
Description: as §1

[5] = test system: HuH7 (hepatocellular carcinoma); test: Cytotoxicity test, ImPACcell platform; format: cell-based, human; conditions: 25 μM, 24 h
Description: as §1

[6] = test system: PC3 (prostatic adenocarcinoma); test: Cytotoxicity test, ImPACcell platform; format: cell-based, human; conditions: 25 μM, 24 h
Description: as §1

[7] = test system: Caco-2 (colorectal adenocarcinoma); test: Cytotoxicity test, ImPACcell platform; format: cell-based, human; conditions: 25 μM, 24 h
Description: as §1

KRFKKFFKKLK [Peptide 3]
reduction of biofilm mass [1]: 78%

KRFKKFFMKLK [Peptide 2]
live cell counts compared to control (MCF7 (breast cancer)): no decrease in live cell counts
live cell counts compared to control [2]: no decrease in live cell counts
live cell counts compared to control [3]: no decrease in live cell counts
live cell counts compared to control [4]: no decrease in live cell counts
live cell counts compared to control [5]: no decrease in live cell counts
live cell counts compared to control [6]: no decrease in live cell counts
live cell counts compared to control [7]: no decrease in live cell counts

KRFKKFFKKVK [Peptide 1]
reduction of biofilm mass [1]: 77%

Source: publication PMC7397659, “Pseudonajide peptide derived from snake venom alters cell envelope integrity interfering on biofilm formation in Staphylococcus epidermidis” (BMC Microbiology, 2020)
